Columns and labels:
[1] = Dye staining and tracing in vivo after intradermal injection; set-up: species or system Balb/c mice; conditions: mouse, ID, 34 gauge needle, 1% solution, one hour post injection
Description: MATERIALS AND METHODS. In Vivo cell staining and all the following experiments were conducted under an approved IACUC protocol. Balb/c mice (Charles River Laboratories, Raleigh, N.C.), 6-8 weeks old, were anesthetized (IsoFlurane, Abbott Laboratories, Chicago, Ill.) and injected intradermally with 1% Evans Blue dye solution using a standard syringe with 34 gauge needle. The mice were dissected one hour post injection and the location of the dye observed. The mouse, as the human, has several main groups of easily identified draining lymph nodes.

[2] = Dye staining and tracing in vivo: comparison of SC and ID delivery; set-up: species or system Yorkshire swine; conditions: swine; for location of dye on dissection: 10 minutes post injection
Description: MATERIALS AND METHODS. In vivo cell staining and all the following experiments were conducted under an approved IACUC protocol. […] Visual observation made during ID injection noted immediate transport of the dye from the site of injection moving toward the regional draining lymph node, the inguinal node. This transport was visible through the skin and was extremely rapid, traversing tissues at velocities of up to 10 cm per second. […] The swine was euthanized and dissected 10 minutes post injection and the location of the dye observed.

[3] = ID administration of 200 uL dye with 34G, 1 mm needle/catheter, transport to inguinal lymph node; format: in vivo, Yorkshire swine; conditions: swine, manual ID above the right hoof, 200 uls
Description: MATERIALS AND METHODS. The following experiments were conducted under an approved IACUC protocol. Yorkshire Swine (Charles River Laboratories, Raleigh, N.C.), approximately 20-25 kg, were anesthetized (Rompun 4 mg/kg, Xylazine 2 mg/kg, and Ketamine 2 mg/kg and maintained on 2% isoflurane) and injected intradermally with 1% Evans Blue (EB) dye solution at various volumes and needle penetration depths using a standard syringe and a 34 gauge needle. Injection volume and rate was controlled manually or with a Harvard Apparatus PhD 2000 programmable pump.
The skin at the injection site, including the injected material and surrounding tissue, was immediately excised after the injection. The tissue was flash frozen on dry ice/2-methylbutane and then stored at −80° C. until sectioning. The frozen tissue was cut longitudinally through the needle insertion point and immediately examined microscopically and photographed. Microscopic examinations were conducted using a Nikon SMZ-U dissecting scope with a Nikon FX-35PX 35 mm camera mount. Alternatively, after injection, the swine was euthanized and the tissue resected and photographed.
One anesthetized Yorkshire swine was manually injected intradermally above the right hoof with 200 uls of EB through a 34G, 1 mm needle/catheter.

[4] = Yorkshire, swine, in vivo
Description: Yorkshire swine (Charles River Laboratories, Raleigh, N.C.), 20-25 kg, were anesthetized (telazol/xylazine/ketamine mix (35, 17.5, 17.5 mg/kg respectively, followed by continued isoflurane inhalation) and injected intradermally (90° angle) using a 34G, 1 mm needle/catheter and a standard syringe. IV injections were performed using a 27G, half-inch needle and delivered through a venous catheter. All recovered swine were intubated and hydrated throughout the procedure.
Dye Injections: Yorkshire swine were injected ID as described above, with 200 uls of 250 ug/ml indocyanine green (ICG) in sterile water (Fluka Chemical Corp., Milwaukee, Wis.). Injections sites included the right hind leg, and at the first and second teat of the left mammary chain. Additional injections of 200 μls and 75 μls were performed at 80 ug/ml indocyanine green in order to determine lymphatic flow rates. […]
Image Acquisition: Near infrared images were obtained using a tungsten lamp (Dolan-Jenner, Lawrence, Mass.) fitted with a 750 nm excitation filter (Omega Optical, Brattleboro, Vt.), a CCD camera (Kowa Co., Supercircuits CCTV camera model b/w Hi-Res ExVision) fitted with a 790 nm long pass emission filter (Omega Optical) and a Canon ZR-20 mini-DV camcorder. […] Speed of infusion through the lymphatic vessels determined from film footage.

SMILES	staining of superficial inguinal lymph nodes with the dye [1]	location of dye on dissection ([2]; ID injected)	velocity of dye transport from injection site toward inguinal node ([2]; ID, 34-gauge needle 1 mm, 1% solution, visual observation through skin)	location of dye on dissection ([2]; subcutaneous injected)	transport of dye, visual observation ([2]; subcutaneous, 25 gauge needle, approximate depth 7 mm)	time for dye to travel from site of injection to draining inguinal lymph node [3]	rate of travel of dye to draining inguinal lymph node ([3]; 34G 1 mm needle/catheter) [cm/s]	dye travel speed calculated for one injection [4] [cm/s]
Cc1cc(-c2ccc(/N=N/c3ccc4c(S(=O)(=O)O)cc(S(=O)(=O)O)c(N)c4c3O)c(C)c2)ccc1/N=N/c1ccc2c(S(=O)(=O)O)cc(S(=O)(=O)O)c(N)c2c1O [Evans Blue]	highly stained	moved rapidly through the lymphatic vasculature to the inguinal node	up to 10 cm per second	remained at the site of injection and was not transported to the inguinal node	no apparent transport of the dye	Within seconds	~20	–
CC1(C)C(/C=C/C=C/C=C/C=C2\N(CCCCS(=O)(=O)O)c3ccc4ccccc4c3C2(C)C)=[N+](CCCCS(=O)(=O)[O-])c2ccc3ccccc3c21 [ICG, indocyanine green]	–	–	–	–	–	–	–	7
